What all share (type): cell-based
Experiment [1] has as its target T1, Heat shock protein HSP90 (Homo sapiens) (UniProt P07900+P08238). Briefly: Inhibition of HSP90 in human H1299 cells assessed as reduction in HIF-1alpha at 100 nM incubated for 72 hrs and subsequently incubated under hypoxic conditions for 12 hrs by Western blot analysis relative to control. As to conditions: values are per cent of control. In general terms: In western blotting, separated proteins are transferred to a membrane and probed.

The target in experiment [2] is T1, Heat shock protein HSP90 (Homo sapiens). Description: Inhibition of HSP90 in human H1299 cells assessed as reduction in HIF-1alpha at 10 nM incubated for 72 hrs and subsequently incubated under hypoxic conditions for 12 hrs by Western blot analysis relative to control. Conditions: values are per cent of control.
The target is the same in experiment [3]. Briefly: Inhibition of HSP90 in human H1299 cells assessed as reduction in HIF-1alpha incubated for 72 hrs and subsequently incubated under hypoxic conditions for 12 hrs by Western blot analysis relative to control.

For `COc1ccc(N(Cc2ccccn2)C(=O)c2ccc3c(c2OC)C=CC(C)(C)O3)nc1OC`, the response, % of control in experiment [1] came to 97%.
`COc1ccc(N(CCOCc2ccccc2)C(=O)c2ccc3c(c2OC)C=CC(C)(C)O3)nc1OC`: the response, % of control was found to be 57.2% in experiment [1] and 69.3% in experiment [2]. Besides, in experiment [3], the inhibition entry was “Dose-dependent effect”.
For `COc1ccc(N(CCN2CCCCC2)C(=O)c2ccc3c(c2OC)C=CC(C)(C)O3)cc1OC`, the response, % of control in experiment [1] turned out to be 83.7%.
On the same count and under the same terms, next, `COc1ccc(N(CCNC(C)=O)C(=O)c2ccc3c(c2OC)C=CC(C)(C)O3)cc1OC`: 127%; `COCCN(C(=O)c1ccc2c(c1OC)C=CC(C)(C)O2)c1ccc(OC)c(OC)c1F`: 59.3%; `COc1ccc(N(CCN2CCNCC2)C(=O)c2ccc3c(c2OC)C=CC(C)(C)O3)nc1OC`: 59.4%.
Regarding `COc1ccc(N(Cc2ccccc2)C(=O)c2ccc3c(c2OC)C=CC(C)(C)O3)nc1OC`, the response, % of control was 38.6% in experiment [1] and 83.4% in experiment [2].
On the same counts, the results for `COc1ccc(N(CCN2CCOCC2)C(=O)c2ccc3c(c2OC)C=CC(C)(C)O3)c(F)c1OC` are 48.8% and 111%.
For the compound `COc1ccc(N(CCNC(C)=O)C(=O)c2ccc3c(c2OC)C=CC(C)(C)O3)nc1OC`, the response, % of control in experiment [1] was determined as 58.1%; in experiment [2], 66%. For the same compound, the inhibition result in experiment [3] was “Dose-dependent effect”.
With `COc1ccc(N(CCN(C)C)C(=O)c2ccc3c(c2OC)C=CC(C)(C)O3)cc1OC`, the response, % of control in experiment [1] stood at 71%.
Still for that read-out and setting: next, `COc1ccc(N(CCOCc2ccccc2)C(=O)c2ccc3c(c2OC)C=CC(C)(C)O3)cc1OC`: 74.4%; `COc1ccc(N(Cc2cccc(Cl)c2)C(=O)c2ccc3c(c2OC)C=CC(C)(C)O3)nc1OC`: 80.2%.
For the compound `COc1ccc(N(CCN2CCOCC2)C(=O)c2ccc3c(c2OC)C=CC(C)(C)O3)nc1OC`, the response, % of control in experiment [1] turned out to be 60.3%; in experiment [2], 72.9%. Further, the inhibition result in experiment [3] is “Dose-dependent effect”.
For the compound `COc1ccc(N(CCCNC(C)=O)C(=O)c2ccc3c(c2OC)C=CC(C)(C)O3)nc1OC`, the response, % of control in experiment [1] amounted to 76.6%.
On the same count and under the same terms, for `COc1ccc(N(CCO)C(=O)c2ccc3c(c2OC)C=CC(C)(C)O3)c(F)c1OC` the value was 124%; for `CNCCN(C(=O)c1ccc2c(c1OC)C=CC(C)(C)O2)c1ccc(OC)c(OC)c1`, 75.9%.
Turning to `COc1ccc(N(CCN2CCN(C)CC2)C(=O)c2ccc3c(c2OC)C=CC(C)(C)O3)nc1OC`, the results for the response, % of control in experiment [1] and in experiment [2] were 42.2% and 97.2%, respectively.
On the same counts, the results for `COc1ccc(N(CCCN)C(=O)c2ccc3c(c2OC)C=CC(C)(C)O3)nc1OC` are 45.3% and 111%.
As to `COc1ccc(CN(C(=O)c2ccc3c(c2OC)C=CC(C)(C)O3)c2ccc(OC)c(OC)n2)cc1`, the response, % of control in experiment [1] was 77%.
Take `COc1ccc(N(C)C(=O)c2ccc3c(c2OC)C=CC(C)(C)O3)nc1OC`: the response, % of control amounted to 62.3% in experiment [1] and 90.4% in experiment [2].
For `COc1ccc(N(CCNC(=O)OC(C)(C)C)C(=O)c2ccc3c(c2OC)C=CC(C)(C)O3)nc1OC`, the response, % of control in experiment [1] is 57.4%.
Turning to `COc1ccc(N(Cc2ccc(C)cc2)C(=O)c2ccc3c(c2OC)C=CC(C)(C)O3)nc1OC`, in experiment [1], the response, % of control was 71.1%.
Still for that read-out and setting: next, `COc1ccc(N(CCCN)C(=O)c2ccc3c(c2OC)C=CC(C)(C)O3)c(F)c1OC`: 68.5%; `COc1ccc(NC(=O)c2ccc3c(c2OC)C=CC(C)(C)O3)c(F)c1OC`: 101%; `COc1ccc(N(CCCN)C(=O)c2ccc3c(c2OC)C=CC(C)(C)O3)cc1OC`: 100%.
The same measure, in the same setting: next, `COc1ccc(N(CCN2CCCCC2)C(=O)c2ccc3c(c2OC)C=CC(C)(C)O3)c(F)c1OC`: 54.3%.
For `CNCCN(C(=O)c1ccc2c(c1OC)C=CC(C)(C)O2)c1ccc(OC)c(OC)n1`, the response, % of control in experiment [1] came out at 41.2%; in experiment [2], 93%.
For the compound `CCN(CC)CCN(C(=O)c1ccc2c(c1OC)C=CC(C)(C)O2)c1ccc(OC)c(OC)n1`, the response, % of control in experiment [1] turned out to be 64.4%.
The same measure, in the same setting: for `COc1ccc(N(CCN2CCN(C)CC2)C(=O)c2ccc3c(c2OC)C=CC(C)(C)O3)cc1OC` the value was 61.9%.
As for `COc1ccc(N(Cc2ccncc2)C(=O)c2ccc3c(c2OC)C=CC(C)(C)O3)nc1OC`, the results for the response, % of control in experiment [1] and in experiment [2] were 55.2% and 108%, respectively.
As to `COc1ccc(N(Cc2ccc(F)cc2)C(=O)c2ccc3c(c2OC)C=CC(C)(C)O3)nc1OC`, the response, % of control is 63.1% in experiment [1] and 104% in experiment [2].
Consider `COc1ccc(N(C(=O)c2ccc3c(c2OC)C=CC(C)(C)O3)c2ccc(F)cc2)cc1OC`, for which the response, % of control in experiment [1] was 70.2%.
Turning to `COc1ccc(N(CCOCc2ccccc2)C(=O)c2ccc3c(c2OC)C=CC(C)(C)O3)c(F)c1OC`, in experiment [1], the response, % of control turned out to be 65.4%.
The same measure, in the same setting: next, `COc1ccc(NC(=O)c2ccc3c(c2OC)C=CC(C)(C)O3)nc1OC`: 88.4%; `COc1ccc(N(CCN2CCCCC2)C(=O)c2ccc3c(c2OC)C=CC(C)(C)O3)nc1OC`: 79.7%; `COc1ccc(NC(=O)c2ccc3c(c2OC)C=CC(C)(C)O3)cc1OC`: 147%.
Regarding `COc1ccc(N(C(=O)c2ccc3c(c2OC)C=CC(C)(C)O3)c2ccc(Cl)cc2)cc1OC`, in experiment [1], the response, % of control was determined as 81.2%.
`COc1ccc(N(Cc2ccccc2)C(=O)c2ccc3c(c2OC)C=CC(C)(C)O3)cc1OC`: the response, % of control in experiment [1] worked out at 69.8%.
With `COc1ccc(N(CCN2CCOCC2)C(=O)c2ccc3c(c2OC)C=CC(C)(C)O3)cc1OC`, the response, % of control in experiment [1] came to 117%.
Still for that read-out and setting: for `COc1ccc(N(CCN2CCNCC2)C(=O)c2ccc3c(c2OC)C=CC(C)(C)O3)c(F)c1OC` the value was 54.9%.
For `COc1ccc(N(CCN)C(=O)c2ccc3c(c2OC)C=CC(C)(C)O3)nc1OC`, the response, % of control is 33.3% in experiment [1] and 64% in experiment [2]. The inhibition result in experiment [3] was “Dose-dependent effect”.
As to `COc1ccc(N(C)C(=O)c2ccc3c(c2OC)C=CC(C)(C)O3)c(F)c1OC`, in experiment [1], the response, % of control was found to be 93.1%.
Still for that read-out and setting: next, `COc1ccc(N(Cc2ccc(Cl)cc2)C(=O)c2ccc3c(c2OC)C=CC(C)(C)O3)nc1OC`: 57.6%.
As to `COc1ccc(N(CCN)C(=O)c2ccc3c(c2OC)C=CC(C)(C)O3)cc1OC`, the response, % of control amounted to 39.4% in experiment [1] and 62.1% in experiment [2]. Also, the inhibition entry in experiment [3] was “Dose-dependent effect”.
In the case of `COc1ccc(N(Cc2ccccc2)C(=O)c2ccc3c(c2OC)C=CC(C)(C)O3)c(F)c1OC`, the response, % of control in experiment [1] was 60.8%.
Still for that read-out and setting: for `COc1ccc(N(CCN)C(=O)c2ccc3c(c2OC)C=CC(C)(C)O3)c(F)c1OC` the value was 147%.
The same measure, in the same setting: next, `COc1ccc(N(CCNC(=O)OC(C)(C)C)C(=O)c2ccc3c(c2OC)C=CC(C)(C)O3)cc1OC`: 70.3%; `COCCN(C(=O)c1ccc2c(c1OC)C=CC(C)(C)O2)c1ccc(OC)c(OC)c1`: 65.5%.
On the same count and under the same terms, for `COc1ccc(N(CCO)C(=O)c2ccc3c(c2OC)C=CC(C)(C)O3)nc1OC` the value was 87.9%; for `COCCN(C(=O)c1ccc2c(c1OC)C=CC(C)(C)O2)c1ccc(OC)c(OC)n1`, 52.5%.
Take `COc1ccc(N(CCN2CCN(C)CC2)C(=O)c2ccc3c(c2OC)C=CC(C)(C)O3)c(F)c1OC`: the response, % of control is 53.7% in experiment [1] and 81.2% in experiment [2].
For `CNCCN(C(=O)c1ccc2c(c1OC)C=CC(C)(C)O2)c1ccc(OC)c(OC)c1F`, the response, % of control in experiment [1] was 107%.
Take `COc1ccc(N(CCC2CCNCC2)C(=O)c2ccc3c(c2OC)C=CC(C)(C)O3)nc1OC`: the values for the response, % of control in experiment [1] and in experiment [2] were 55.2% and 97.2%, respectively.
On to `COc1ccc(N(Cc2cccnc2)C(=O)c2ccc3c(c2OC)C=CC(C)(C)O3)nc1OC`, for which the response, % of control in experiment [1] is 95.8%.
For the compound `COc1ccc(N(CCN(C)C)C(=O)c2ccc3c(c2OC)C=CC(C)(C)O3)nc1OC`, the response, % of control in experiment [1] was determined as 37.9%; in experiment [2] it was 75.5%. The inhibition entry in experiment [3] is “Dose-dependent effect”.
Consider `COc1ccc(N(CCN(C)C)C(=O)c2ccc3c(c2OC)C=CC(C)(C)O3)c(F)c1OC`, for which the response, % of control was 53.3% in experiment [1] and 97.9% in experiment [2].
With `COc1ccc(N(C(=O)c2ccc3c(c2OC)C=CC(C)(C)O3)c2ccc(OC)c(OC)c2)cc1`, the response, % of control in experiment [1] turned out to be 61.9%.
Still for that read-out and setting: next, `COc1ccc(N(C(=O)c2ccc3c(c2OC)C=CC(C)(C)O3)c2ccc(C)cc2)cc1OC`: 58.9%.
The same measure, in the same setting: for `COc1ccc(N(CCN2CCCC2)C(=O)c2ccc3c(c2OC)C=CC(C)(C)O3)nc1OC` the value was 66%.
With `COc1ccc(N(CCCN(C)C)C(=O)c2ccc3c(c2OC)C=CC(C)(C)O3)nc1OC`, the results for the response, % of control in experiment [1] and in experiment [2] were 44% and 65.6%, respectively. In addition, the inhibition entry in experiment [3] was “Dose-dependent effect”.
For `COc1ccc(N(CCO)C(=O)c2ccc3c(c2OC)C=CC(C)(C)O3)cc1OC`, in experiment [1], the response, % of control is 133%.
On the same count and under the same terms, next, `COc1ccc(N(C)C(=O)c2ccc3c(c2OC)C=CC(C)(C)O3)cc1OC`: 126%; `COc1ccc(N(Cc2cccc(F)c2)C(=O)c2ccc3c(c2OC)C=CC(C)(C)O3)nc1OC`: 85.7%.
Turning to `COc1ccc(N(C(=O)c2ccc3c(c2OC)C=CC(C)(C)O3)c2ccccc2)cc1OC`, the response, % of control in experiment [1] amounted to 52.8%; in experiment [2], 83.7%.

Source of the values: ChEMBL document CHEMBL4480433, “Investigation of B,C-ring truncated deguelin derivatives as heat shock protein 90 (HSP90) inhibitors for use as anti-breast cancer agents” (Bioorg Med Chem, 2019).
